Assay results as given in paper PMC8523698, “Preclinical characterization of an intravenous coronavirus 3CL protease inhibitor for the potential treatment of COVID19” (Nature Communications, 2021).
Several values for one entry are separate records, joined by “and”; a condition that tells them apart may be missing. Equal values may be shown once.

How the values were obtained:
[1] = test system: Salmonella typhimurium strains and E. coli strain WP2 uvrA; assay: Bacterial reverse mutation assay; conditions: with and without metabolic activation
[2] = Plasma protein binding by equilibrium dialysis; conditions: for fraction unbound at 6 h, 5 uM / fraction unbound at 6 h: dog, plasma
CYP1A2 = molecular target: T1, CYP1A2 (Homo sapiens, UniProt P05177); assay: Reversible CYP inhibition in human liver microsomes
T1 sequence (P05177 1-516): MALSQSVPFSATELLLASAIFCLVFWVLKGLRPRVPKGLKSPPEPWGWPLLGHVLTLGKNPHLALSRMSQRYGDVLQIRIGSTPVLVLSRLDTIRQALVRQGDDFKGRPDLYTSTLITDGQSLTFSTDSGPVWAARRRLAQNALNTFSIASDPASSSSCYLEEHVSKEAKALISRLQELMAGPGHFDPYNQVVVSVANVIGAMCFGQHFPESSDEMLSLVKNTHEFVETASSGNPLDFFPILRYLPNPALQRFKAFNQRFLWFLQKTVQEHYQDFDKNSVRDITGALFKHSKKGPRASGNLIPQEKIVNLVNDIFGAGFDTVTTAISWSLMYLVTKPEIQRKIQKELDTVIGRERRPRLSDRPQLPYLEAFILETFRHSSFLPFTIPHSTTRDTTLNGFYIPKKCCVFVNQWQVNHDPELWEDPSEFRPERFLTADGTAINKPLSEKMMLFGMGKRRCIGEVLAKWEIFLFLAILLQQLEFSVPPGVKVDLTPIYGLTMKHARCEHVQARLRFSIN

**Q.** For `COc1cccc2[nH]c(C(=O)N[C@@H](CC(C)C)C(=O)N[C@@H](C[C@@H]3CCNC3=O)C(=O)CO)cc12` [PF-00835231], which “bacterial reverse mutation assay result” value [1] is on record?
**A.** Its value is “negative”.

**Q.** What about the fraction unbound at 6 h, 5 uM ([2]; Beagle, pH 7.4, Fraction unbound, Geomean, Dog plasma, 5.0 uM, n 12) of the same compound?
**A.** The fraction unbound at 6 h, 5 uM was 0.416.

**Q.** And the fraction unbound at 6 h, 5 uM ([2]; Beagle, pH 7.4, Individual fraction unbound, Dog Beagle plasma, 5.0 uM, replicates Day 1-3)?
**A.** Its fraction unbound at 6 h, 5 uM is 0.401.

**Q.** And the Individual fraction unbound ([2]; Dog Beagle plasma, 5.0 uM, replicates Day 1-3)?
**A.** Its Individual fraction unbound is 0.386 and 0.435 and 0.45 and 0.406 and 0.488 and 0.451 and 0.403 and 0.342 and 0.444 and 0.382 and 0.419.

**Q.** And the fraction unbound at 6 h ([2]; pH 7.4, Plasma fu, Vdss input)?
**A.** The fraction unbound at 6 h was 0.416.

**Q.** What about the fraction unbound at 6 h ([2]; pH 7.4, Unbound fraction fu (%CV), dog plasma) of the same compound?
**A.** The fraction unbound at 6 h was 0.416.

**Q.** What about the fraction unbound at 6 h, 5 uM ([2]; pH 7.4, fraction unbound Geomean, dog plasma, 5.0 uM, n=12) of the same compound?
**A.** Its fraction unbound at 6 h, 5 uM is 0.416.

**Q.** And the “Percent of Control Activity” value (CYP1A2; CYP 1A2, 0.1 µM, 30-Minute Preincubation, 0.1 µM)?
**A.** The value was 100.7% and 97.2%.

**Q.** And the “Percent of Control Activity” value (CYP1A2; CYP 1A2, 0.1 µM, Zero-Minute Preincubation, 0.1 µM)?
**A.** The value was 91.5%.

**Q.** What about the “Percent of Control Activity” value (CYP1A2; CYP 1A2, 0.214 µM, 30-Minute Preincubation, 0.214 µM) of the same compound?
**A.** The value was 101.6% and 102.2%.

**Q.** And the “Percent of Control Activity” value (CYP1A2; CYP 1A2, 0.214 µM, Zero-Minute Preincubation, 0.214 µM)?
**A.** The value was 97.3%.

**Q.** What about the “Percent of Control Activity” value (CYP1A2; CYP 1A2, 0.979 µM, 30-Minute Preincubation, 0.979 µM) of the same compound?
**A.** The value was 100.1% and 99.5%.

**Q.** And the “Percent of Control Activity” value (CYP1A2; CYP 1A2, 0.979 µM, Zero-Minute Preincubation, 0.979 µM)?
**A.** The value was 99.8% and 102.1%.

**Q.** And the “Percent of Control Activity” value (CYP1A2; CYP 1A2, 2.09 µM, 30-Minute Preincubation, 2.09 µM)?
**A.** Its value is 98.8%.

**Q.** And the “Percent of Control Activity” value (CYP1A2; CYP 1A2, 2.09 µM, Zero-Minute Preincubation, 2.09 µM)?
**A.** Its value is 90.6% and 85.1%.

**Q.** What about the “Percent of Control Activity” value (CYP1A2; CYP 1A2, 4.48 µM, 30-Minute Preincubation, 4.48 µM) of the same compound?
**A.** Its value is 99.2% and 99.5%.

**Q.** What about the “Percent of Control Activity” value (CYP1A2; CYP 1A2, 4.48 µM, Zero-Minute Preincubation, 4.48 µM) of the same compound?
**A.** Its value is 97.7%.

**Q.** What about the “Percent of Control Activity” value (CYP1A2; CYP 1A2, 20.5 µM, 30-Minute Preincubation, 20.5 µM) of the same compound?
**A.** Its value is 99.6% and 97.2%.

**Q.** And the “Percent of Control Activity” value (CYP1A2; CYP 1A2, 20.5 µM, Zero-Minute Preincubation, 20.5 µM)?
**A.** The value was 95.6% and 98.0%.

**Q.** And the “Percent of Control Activity” value (CYP1A2; CYP 1A2, 43.8 µM, 30-Minute Preincubation, 43.8 µM)?
**A.** The value was 96.6% and 97.7%.

**Q.** What about the “Percent of Control Activity” value (CYP1A2; CYP 1A2, 43.8 µM, Zero-Minute Preincubation, 43.8 µM) of the same compound?
**A.** The value was 92.9% and 93.4%.

**Q.** What about the “Percent of Control Activity” value (CYP1A2; CYP 1A2, 93.5 µM, 30-Minute Preincubation, 93.5 µM) of the same compound?
**A.** The value was 90.5% and 95.8%.

**Q.** And the “Percent of Control Activity” value (CYP1A2; CYP 1A2, 93.5 µM, Zero-Minute Preincubation, 93.5 µM)?
**A.** The value was 76.6% and 87.4%.

**Q.** And the “Percent of Control Activity” value (CYP1A2; CYP 1A2, 200 µM, 30-Minute Preincubation, 200 µM)?
**A.** Its value is 92.7% and 91.0%.

**Q.** What about the “Percent of Control Activity” value (CYP1A2; CYP 1A2, 200 µM, Zero-Minute Preincubation, 200 µM) of the same compound?
**A.** Its value is 81.0% and 74.4%.

**Q.** And the IC50 (CYP1A2; human, microsomes, pH 7.4)?
**A.** The IC50 was > 200 µM.

**Q.** And the activity at 0.1 µM (CYP1A2; human, microsomes, pH 7.4, Percent of Control Activity, CYP 1A2, 0.1 µM, 30-Minute Preincubation)?
**A.** The activity at 0.1 µM was 98%.

**Q.** What about the activity at 0.1 µM (CYP1A2; human, microsomes, pH 7.4, Percent of Control Activity, CYP 1A2, 0.1 µM, Zero-Minute Preincubation) of the same compound?
**A.** The activity at 0.1 µM was 97.8%.

**Q.** What about the activity at 0.214 µM (CYP1A2; human, microsomes, pH 7.4, Percent of Control Activity, CYP 1A2, 0.214 µM, 30-Minute Preincubation) of the same compound?
**A.** The activity at 0.214 µM was 96.5%.

**Q.** And the activity at 0.214 µM (CYP1A2; human, microsomes, pH 7.4, Percent of Control Activity, CYP 1A2, 0.214 µM, Zero-Minute Preincubation)?
**A.** The activity at 0.214 µM was 98.4%.

**Q.** And the activity at 0.979 µM (CYP1A2; human, microsomes, pH 7.4, Percent of Control Activity, CYP 1A2, 0.979 µM, 30-Minute Preincubation)?
**A.** The activity at 0.979 µM was 98.9%.

**Q.** And the activity at 0.979 µM (CYP1A2; human, microsomes, pH 7.4, Percent of Control Activity, CYP 1A2, 0.979 µM, Zero-Minute Preincubation)?
**A.** The activity at 0.979 µM was 97.6%.

**Q.** And the activity at 2.09 µM (CYP1A2; human, microsomes, pH 7.4, Percent of Control Activity, CYP 1A2, 2.09 µM, 30-Minute Preincubation)?
**A.** The activity at 2.09 µM was 98.3%.

**Q.** What about the activity at 2.09 µM (CYP1A2; human, microsomes, pH 7.4, Percent of Control Activity, CYP 1A2, 2.09 µM, Zero-Minute Preincubation) of the same compound?
**A.** Its activity at 2.09 µM is 97.8%.

**Q.** What about the activity at 4.48 µM (CYP1A2; human, microsomes, pH 7.4, Percent of Control Activity, CYP 1A2, 4.48 µM, 30-Minute Preincubation) of the same compound?
**A.** Its activity at 4.48 µM is 97%.

**Q.** What about the activity at 4.48 µM (CYP1A2; human, microsomes, pH 7.4, Percent of Control Activity, CYP 1A2, 4.48 µM, Zero-Minute Preincubation) of the same compound?
**A.** The activity at 4.48 µM was 99.3%.

**Q.** What about the activity at 20.5 µM (CYP1A2; human, microsomes, pH 7.4, Percent of Control Activity, CYP 1A2, 20.5 µM, 30-Minute Preincubation) of the same compound?
**A.** The activity at 20.5 µM was 97.1%.

**Q.** And the activity at 20.5 µM (CYP1A2; human, microsomes, pH 7.4, Percent of Control Activity, CYP 1A2, 20.5 µM, Zero-Minute Preincubation)?
**A.** Its activity at 20.5 µM is 99.4%.

**Q.** What about the activity at 43.8 µM (CYP1A2; human, microsomes, pH 7.4, Percent of Control Activity, CYP 1A2, 43.8 µM, 30-Minute Preincubation) of the same compound?
**A.** Its activity at 43.8 µM is 95.9%.

**Q.** What about the activity at 43.8 µM (CYP1A2; human, microsomes, pH 7.4, Percent of Control Activity, CYP 1A2, 43.8 µM, Zero-Minute Preincubation) of the same compound?
**A.** Its activity at 43.8 µM is 94.2%.

**Q.** And the activity at 93.5 µM (CYP1A2; human, microsomes, pH 7.4, Percent of Control Activity, CYP 1A2, 93.5 µM, 30-Minute Preincubation)?
**A.** Its activity at 93.5 µM is 89.6%.
